Results as given in DBAASP.
In brackets after ≈: the same amount, converted by molar mass. Several values for one entry are separate records, joined by “and”; a condition that tells them apart may be missing. Equal values may be shown once. Blank lines part the entries; values can stand above or below the compound they belong to.

What was measured:
Test in all cases: ≥ marks a high value that may be exact or a test limit, other limits are often not marked, values filed in µg/mL are converted to µM
Escherichia coli D22 = tested on: Escherichia coli D22
Aspergillus fumigatus = tested on: Aspergillus fumigatus
[1] = tested on: Neurospora crassa CBS 327-54
Micrococcus luteus A270 = tested on: Micrococcus luteus A270
Salmonella typhimurium = tested on: Salmonella typhimurium
[2] = tested on: Enterobacter cloacae 2524
[3] = tested on: Streptococcus pneumoniae ATCC 49619
[4] = tested on: Pseudomonas aeruginosa ATCC 27853
[5] = tested on: Klebsiella pneumoniae ST258
[6] = tested on: Enterobacter cloacae 6780
[7] = tested on: Klebsiella pneumoniae 913
[8] = tested on: Staphylococcus aureus ATCC 25923
Escherichia coli 170 = tested on: Escherichia coli 170
[9] = tested on: Pseudomonas aeruginosa 4677
Acinetobacter baumannii = tested on: Acinetobacter baumannii
Escherichia coli 4530 = tested on: Escherichia coli 4530
[10] = tested on: Klebsiella pneumoniae 1625
[11] = tested on: Escherichia coli ATCC 25922
[12] = tested on: Klebsiella oxytoca ATCC 49131
[13] = tested on: Proteus vulgaris ATCC 49132
[14] = tested on: Candida albicans ATCC 37092
[15] = tested on: Staphylococcus aureus ATCC 29213
[16] = tested on: Candida tropicalis ATCC 37097
[17] = tested on: Salmonella enterica subsp. enterica serovar Typhimurium ATCC 14028
Azotobacter vinelandii = tested on: Azotobacter vinelandii
Escherichia coli W160-37 = tested on: Escherichia coli W160-37
Staphylococcus aureus = tested on: Staphylococcus aureus
[18] = tested on: Listeria monocytogenes ATCC 19111
[19] = tested on: Staphylococcus aureus NBRC 12732
[20] = tested on: Bacillus subtilis NBRC 3513
[21] = tested on: Staphylococcus epidermidis NBRC 12933
[22] = tested on: Bacillus megaterium ATCC 19213
[23] = tested on: Staphylococcus aureus A170
[24] = tested on: Staphylococcus epidermidis
[25] = tested on: Staphylococcus aureus IFO 12732
[26] = tested on: Escherichia coli IFO 12734
[27] = tested on: Bacillus subtilis IFO 3134
[28] = tested on: Pseudomonas aeruginosa IFO 12582

MIC (Escherichia coli D22): ≥ 40 µM
MIC (Aspergillus fumigatus): ≥ 80 µM
MIC [1]: 5 µM (≈ 11.8 µg/mL)
MIC (Micrococcus luteus A270): 2 µM (≈ 4.71 µg/mL)
Compound: CSCC[C@H](NC(=O)[C@H](CO)NC(=O)[C@@H](N)CO)C(=O)N[C@@H](CCCCN)C(=O)N[C@@H](CC(C)C)C(=O)N[C@@H](CO)C(=O)N[C@@H](Cc1ccccc1)C(=O)N[C@@H](CCCN=C(N)N)C(=O)N[C@@H](C)C(=O)N[C@@H](CCCN=C(N)N)C(=O)N[C@@H](C)C(=O)N[C@@H](Cc1ccc(O)cc1)C(=O)N[C@@H](CO)C(=O)N[C@@H](Cc1ccccc1)C(=O)N[C@@H](CCCN=C(N)N)C(=O)NCC(=O)N1CCC[C@H]1C(=O)NCC(=O)N1CCC[C@H]1C(=O)N[C@@H](CCC(N)=O)C(=O)N[C@@H](CC(C)C)C(=O)O [SSMKLSFRARAYSFRGPGPQL]

MIC (Salmonella typhimurium): 1.6 µM (≈ 3.17 µg/mL)
MIC [2]: ≥ 50 µM
MIC [3]: ≥ 50 µM
MIC [4]: > 25.2 µM
MIC [5]: 25.2 µM (≈ 50 µg/mL)
MIC [6]: 3.12 µM (≈ 6.19 µg/mL)
MIC [7]: 3.12 µM (≈ 6.19 µg/mL)
MIC [8]: > 25.2 µM
MIC (Escherichia coli 170): 1.56 µM (≈ 3.09 µg/mL)
MIC [9]: 25 µM (≈ 49.6 µg/mL)
MIC (Acinetobacter baumannii): 2.21 µM (≈ 4.38 µg/mL)
MIC (Escherichia coli 4530): 25 µM (≈ 49.6 µg/mL)
MIC [10]: 1.56 µM (≈ 3.09 µg/mL)
MIC [11]: 1.56 µM (≈ 3.09 µg/mL)
Compound: CC[C@H](C)[C@H](NC(=O)CN)C(=O)N[C@@H](CC(C)C)C(=O)N[C@@H](CCCCN)C(=O)N[C@H](C(=O)N[C@H](C(=O)N[C@@H](CCCCN)C(=O)N[C@@H](CO)C(=O)N[C@H](C(=O)N[C@@H](C)C(=O)N[C@@H](CO)C(=O)N[C@@H](CCCCN)C(=O)N[C@@H](CC(C)C)C(=O)N[C@@H](CCCCN)C(=O)N[C@@H](CCCN=C(N)N)C(=O)N[C@@H](CCCCN)C(=O)N[C@@H](C)C(=O)N[C@@H](CCCCN)C(=O)O)[C@@H](C)CC)[C@@H](C)CC)[C@@H](C)O [GILKTIKSIASKLKRKAK]

MIC [12]: 14.1 µM and 13.1 µM
MIC [13]: 10.2 µM and 18.4 µM
MIC [14]: 9 µM and 17.4 µM
MIC [15]: 8.1 µM and 17.5 µM
MIC [4]: 4.1 µM and 8.7 µM
MIC [16]: 1.4 µM and 3.2 µM
MIC [11]: 39 µM and 33.6 µM
Compound: CC(C)C[C@H](NC(=O)[C@H](CCCN=C(N)N)NC(=O)[C@H](CCCN=C(N)N)NC(=O)[C@H](Cc1ccc(O)cc1)NC(=O)[C@H](CC(C)C)NC(=O)[C@@H](N)CCCN=C(N)N)C(=O)N[C@@H](Cc1ccc(O)cc1)C(=O)N[C@@H](CCCN=C(N)N)C(N)=O [RLYRRLYR]

MIC [17]: 42.3 µM (≈ 100 µg/mL)
MIC (Azotobacter vinelandii): ≥ 84.6 µM
Compound: CC(C)[C@H](NC(=O)[C@H](CCCCN)NC(=O)[C@@H](NC(=O)[C@@H](NC(=O)[C@H](CCC(=O)O)NC(=O)[C@H](CC(N)=O)NC(=O)[C@H](CCC(=O)O)NC(=O)[C@H](CCCCN)NC(=O)[C@H](CC(=O)O)NC(=O)[C@H](CC(=O)O)NC(=O)[C@H](CCC(=O)O)NC(=O)[C@H](CCC(=O)O)NC(=O)[C@H](CCC(=O)O)NC(=O)[C@@H](NC(=O)[C@H](CCCCN)NC(=O)[C@H](CC(=O)O)NC(=O)[C@H](CC(=O)O)NC(=O)[C@@H](N)CC(=O)O)[C@@H](C)O)[C@@H](C)O)[C@@H](C)O)C(=O)N[C@H](C(=O)N[C@@H](CCC(=O)O)C(=O)O)C(C)C [DDDKTEEEDDKENETTKVVE]

MIC (Escherichia coli W160-37): 9.29 µM (≈ 15 µg/mL)
MIC (Staphylococcus aureus): 6.19 µM (≈ 9.99 µg/mL)
Compound: CC[C@H](C)[C@H](N)C(=O)N[C@@H](CC(C)C)C(=O)N1CCC[C@H]1C(=O)N[C@@H](Cc1c[nH]c2ccccc12)C(=O)N[C@@H](CCCCN)C(=O)N[C@@H](CC(C)C)C(=O)N1CCC[C@H]1C(=O)N[C@@H](CC(C)C)C(=O)N[C@@H](CC(C)C)C(=O)N1CCC[C@H]1C(=O)N[C@@H](CC(C)C)C(=O)N[C@@H](CCCN=C(N)N)C(=O)N[C@@H](CCCN=C(N)N)C(N)=O [ILPWKLPLLPLRR]

MIC [18]: 8 µM (≈ 22.3 µg/mL)
Compound: CSCC[C@H](NC(=O)CNC(=O)[C@@H](NC(=O)[C@@H]1CCCN1C(=O)[C@H](CCSC)NC(=O)CNC(=O)[C@H](CC(N)=O)NC(=O)[C@H](CC(N)=O)NC(=O)[C@H](Cc1ccc(O)cc1)NC(=O)[C@@H](NC(=O)[C@H](CCCN=C(N)N)NC(=O)[C@H](CS)NC(=O)[C@H](CCCN=C(N)N)NC(=O)[C@H](Cc1cnc[nH]1)NC(=O)[C@H](CCCCN)NC(=O)[C@H](CCCCN)NC(=O)[C@H](CCCN=C(N)N)NC(=O)[C@@H](N)CCCCN)C(C)C)[C@@H](C)O)C(=O)N[C@@H](Cc1ccc(O)cc1)C(=O)N[C@@H](CCCN=C(N)N)C(=O)N[C@@H](Cc1c[nH]c2ccccc12)C(=O)N[C@@H](CS)C(=O)O [KRKKHRCRVYNNGMPTGMYRWC]

MIC [19]: 4 µM (≈ 8.31 µg/mL)
MIC [20]: 16 µM (≈ 33.2 µg/mL)
MIC [21]: 8 µM (≈ 16.6 µg/mL)
MIC [22]: 4 µM (≈ 8.31 µg/mL)
Compound: CC[C@H](C)[C@H](NC(=O)[C@H](C)N)C(=O)N[C@@H](Cc1ccccc1)C(=O)N[C@H](C(=O)N[C@@H](Cc1ccccc1)C(=O)N[C@H](C(=O)N[C@@H](CCCN=C(N)N)C(=O)N[C@@H](Cc1c[nH]c2ccccc12)C(=O)N[C@@H](CC(C)C)C(=O)N[C@@H](CC(C)C)C(=O)N[C@@H](CCCCN)C(=O)N[C@@H](CC(C)C)C(=O)NCC(=O)N[C@@H](Cc1cnc[nH]1)C(=O)N[C@@H](Cc1cnc[nH]1)C(=O)NCC(=O)N[C@@H](CCCN=C(N)N)C(=O)O)[C@@H](C)CC)[C@@H](C)CC [AIFIFIRWLLKLGHHGR]

MIC [23]: 3.6 µM (≈ 5 µg/mL)
MIC [24]: 7.19 µM (≈ 10 µg/mL)
Compound: CC[C@H](C)[C@H](NC(=O)[C@@H]1CCCN1C(=O)[C@H](CC(C)C)NC(=O)[C@@H](N)CC(C)C)C(=O)N[C@H](C(=O)N[C@@H](C)C(=O)N[C@@H](CC(N)=O)C(=O)N[C@@H](CC(C)C)C(=O)N[C@@H](CC(C)C)C(=O)N[C@@H](CCCCN)C(=O)N[C@@H](C)C(=O)N[C@@H](CC(C)C)C(=O)N[C@@H](CC(C)C)C(=O)O)C(C)C [LLPIVANLLKALL]

MIC [25]: 4 µM (≈ 8.58 µg/mL)
MIC [26]: 16 µM (≈ 34.3 µg/mL)
MIC [27]: 4 µM (≈ 8.58 µg/mL)
MIC [28]: ≥ 32 µM
Compound: CC[C@H](C)[C@H](NC(=O)[C@H](C)NC(=O)[C@@H]1CCCN1C(=O)[C@@H](NC(=O)[C@@H](NC(=O)[C@H](Cc1cnc[nH]1)NC(=O)[C@H](C)NC(=O)[C@H](C)NC(=O)[C@@H](NC(=O)[C@H](CCCCN)NC(=O)[C@H](C)NC(=O)[C@H](CC(C)C)NC(=O)[C@@H](NC(=O)CNC(=O)[C@H](Cc1ccccc1)NC(=O)[C@H](CC(C)C)NC(=O)CN)C(C)C)C(C)C)C(C)C)C(C)C)C(=O)N[C@@H](C)C(=O)N[C@@H](CCCCN)C(=O)N[C@@H](Cc1cnc[nH]1)C(=O)N[C@@H](Cc1ccccc1)C(N)=O [GLFGVLAKVAAHVVPAIAKHF]
